Experimental data from US20260015409A1, “RECEPTOR-MEDIATED ENDOCYTOSIS FOR TARGETED INTERNALIZATION AND DEGRADATION OF MEMBRANE PROTEINS AND CARGOS” (Dana-Farber Cancer Institute, Inc., priority 2022, published 2026).
pIC50: −log10 of the molar value. “Also recorded” adds a separate entry of the source. Where a SMILES comes first, the peptide text is derived from it. The star is where a group is joined. Cbz = O=C(OCc1ccccc1)*

Legend:
EGFR = biological target: T1, EGFR (Homo sapiens, UniProt P00533); experiment: EGFR degradation by Western blot in A549 lung carcinoma cells; assay type: cell-based; settings: A549 cells treated with EGFR-TransTACs; 1 μM inhibitor
T1 construct: endogenous in cells; host or cells: A549
T1 sequence (P00533 25-1210): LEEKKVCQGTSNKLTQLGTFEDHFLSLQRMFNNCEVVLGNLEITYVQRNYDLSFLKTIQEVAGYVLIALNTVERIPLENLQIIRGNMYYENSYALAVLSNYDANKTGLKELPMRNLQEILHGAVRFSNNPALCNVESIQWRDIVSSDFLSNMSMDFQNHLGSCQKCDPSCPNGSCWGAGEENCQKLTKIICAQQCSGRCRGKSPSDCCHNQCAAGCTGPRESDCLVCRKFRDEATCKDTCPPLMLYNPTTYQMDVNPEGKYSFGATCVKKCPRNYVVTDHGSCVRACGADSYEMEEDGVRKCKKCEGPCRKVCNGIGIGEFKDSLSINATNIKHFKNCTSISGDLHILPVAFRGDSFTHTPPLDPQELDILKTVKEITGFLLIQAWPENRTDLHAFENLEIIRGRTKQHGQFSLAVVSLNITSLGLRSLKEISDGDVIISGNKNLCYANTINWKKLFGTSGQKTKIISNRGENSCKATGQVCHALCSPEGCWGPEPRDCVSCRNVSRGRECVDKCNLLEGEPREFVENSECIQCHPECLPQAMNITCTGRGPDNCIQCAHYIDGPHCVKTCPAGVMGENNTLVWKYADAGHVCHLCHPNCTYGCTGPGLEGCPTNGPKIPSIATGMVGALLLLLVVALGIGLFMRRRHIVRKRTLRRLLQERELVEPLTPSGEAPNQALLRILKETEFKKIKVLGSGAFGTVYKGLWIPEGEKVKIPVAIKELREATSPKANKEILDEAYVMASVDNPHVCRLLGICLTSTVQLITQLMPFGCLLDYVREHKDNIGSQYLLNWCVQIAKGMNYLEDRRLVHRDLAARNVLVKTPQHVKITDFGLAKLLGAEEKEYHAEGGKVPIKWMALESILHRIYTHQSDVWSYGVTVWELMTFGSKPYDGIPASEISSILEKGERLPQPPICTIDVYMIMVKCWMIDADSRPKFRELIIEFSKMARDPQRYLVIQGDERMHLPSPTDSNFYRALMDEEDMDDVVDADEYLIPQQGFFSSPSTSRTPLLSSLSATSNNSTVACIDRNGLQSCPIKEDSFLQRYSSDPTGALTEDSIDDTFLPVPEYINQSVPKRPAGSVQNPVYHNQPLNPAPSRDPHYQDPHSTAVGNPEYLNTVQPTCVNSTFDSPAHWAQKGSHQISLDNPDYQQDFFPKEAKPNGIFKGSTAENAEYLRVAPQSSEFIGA
Protocol: Targeted therapy with tyrosine kinase inhibitors is a standard treatment for lung cancer with EGFR mutations. We reasoned that co-targeting an EGFR and a TfR receptor on lung cancer cells could lead to EGFR inhibition while maintaining high tumor specificity (FIG. 30A). We generated an anti-EGFR affibody*H7*GFLG-VR TransTAC. Incubation of the molecule with a human lung adenocarcinoma A549 cell line led to >90% EGFR degradation (FIG. 30B). […] This specificity results from higher TfR expression in tumor cells (FIG. 27A-C).
Next, we aimed to target epidermal growth factor receptor (EGFR), a receptor tyrosine kinase that plays an important role in the development and progression of various types of cancers such as lung and brain. An affibody (Friedman, Mikaela, et al. “Directed evolution to low nanomolar affinity of a tumor-targeting epidermal growth factor receptor-binding affibody molecule.” Journal of molecular biology 376.5, 2008: 1388-1402) was used to bind EGFR and create an EGFR-TransTAC.
We next investigated the cellular mechanism underlying TransTAC-mediated protein degradation. Two primary pathways involved in the degradation of cellular proteins were tested: the lysosomal pathway and the proteosome pathway. A549 cells were treated either with bafilomycin, a vacuolar proton pump inhibitor that inhibits lysosomal acidification, or MG132, a proteasomal inhibitor.

PC9-GR4 cells = experiment: MTT cell viability assay, PC9-GR4 cells; assay type: cell-based
PC9 GR4 C797S cells = experiment: MTT cell viability assay, PC9 GR4 C797S cells
CD20 = biological target: T2, CD20 (Homo sapiens, UniProt P11836); experiment: CD20 degradation in Raji cells; assay type: cell-based; settings: Western blot
T2 construct: endogenous in cells; host or cells: Raji
T2 sequence (P11836 1-297): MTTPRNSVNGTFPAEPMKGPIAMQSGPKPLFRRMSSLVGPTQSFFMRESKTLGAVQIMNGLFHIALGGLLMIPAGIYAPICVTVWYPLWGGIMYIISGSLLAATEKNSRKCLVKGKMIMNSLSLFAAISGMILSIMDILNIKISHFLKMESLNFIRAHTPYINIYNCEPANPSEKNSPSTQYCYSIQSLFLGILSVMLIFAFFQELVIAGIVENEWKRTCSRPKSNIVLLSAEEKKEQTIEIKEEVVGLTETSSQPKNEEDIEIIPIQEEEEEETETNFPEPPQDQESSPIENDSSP
From the text: Cluster of differentiate 20 (CD20) is a B cell-specific surface marker with four transmembrane domains and an unknown function. Knocking down cell surface CD20s with a degrader can be valuable. A CD20-TransTAC was created using a Fab format of Rituximab, the first clinically approved CD20 antibody, to bind CD20.

| pIC50 (PC9-GR4 cells) | Molecule | effect of inhibitor on TransTAC-mediated EGFR degradation (EGFR) | other results |
| --- | --- | --- | --- |
| – | CC(C)C[C@@H](C=O)NC(=O)[C@H](CC(C)C)NC(=O)[C@H](CC(C)C)NC(=O)OCc1ccccc1 [MG132] (Cbz-Leu-Leu-Leu-aldehyde) | sensitive; also recorded: much less significant effect | – |
| 6.77 | CN(C)C/C=C/C(=O)Nc1cc2c(Nc3ccc(F)c(Cl)c3)ncnc2cc1O[C@H]1CCOC1 [afatinib] | – | – |
| – | CO/C1=C\C(C)=C\[C@@H](C)[C@@H](O)[C@@H](C)C/C(C)=C/C=C/[C@H](OC)[C@@H]([C@@H](C)[C@@H](O)[C@H](C)[C@@]2(O)C[C@@H](O)[C@H](C)[C@@H](C(C)C)O2)OC1=O [bafilomycin] | sensitive; also recorded: prevented TransTAC-mediated EGFR degradation; also recorded: fully inhibited | – |
| 6.68 | C=CC(=O)Nc1cc(Nc2nccc(-c3cn(C)c4ccccc34)n2)c(OC)cc1N(C)CCN(C)C [osimertinib] | – | inhibition of cell viability (PC9 GR4 C797S cells): did not respond |
| – | rituximab-scFv-Fc control: rituximab scFv-Fc control without TfR binder | – | CD20 degradation (CD20): does not lead to significant CD20 degradation |
